Reference: patent publication US7553849B2, “Compounds” (Active Biotech AB, priority 2004, dated 2009)

Tested on: acute experimental autoimmune encephalomyelitis (aEAE)
Assay: Acute experimental autoimmune encephalomyelitis (aEAE) inhibition in mice
Type: in vivo
Settings: for activity in the aEAE model (in words): mice, no dose stated; for aEAE inhibition (%): percent inhibition of clinical scores vs saline controls
[1] = SJL/N female mice, dose 0.2 mg/kg po daily at days 3 to 7 and 10 to 12
[2] = SJL/N female mice, dose 1.0 mg/kg po daily at days 3 to 7 and 10 to 12
[3] = SJL/N female mice, dose 5.0 mg/kg po daily at days 3 to 7 and 10 to 12

SMILES	activity in the aEAE model (in words)	aEAE inhibition (%) [1]	aEAE inhibition (%) [2]	other results
O=C(Nc1cccnc1)c1c(O)c2ccsc2[nH]c1=O [6,7-dihydro-4-hydroxy-N-(3-pyridyl)-6-oxo-thieno[2,3-b]pyridine-5-carboxamide, reference compound]	inactive	–	–	–
Cc1csc2c1c(O)c(C(=O)N(C)c1ccccc1)c(=O)n2C [Compound #1, 6,7-dihydro-4-hydroxy-N-phenyl-N,3,7-trimethyl-6-oxo-thieno[2,3-b]pyridine-5-carboxamide]	–	85%	99%	–
CCN(C(=O)c1c(O)c2c(C)csc2n(C)c1=O)c1ccccc1 [compound 2, 6,7-dihydro-3,7-dimethyl-N-ethyl-4-hydroxy-N-phenyl-6-oxo-thieno[2,3-b]pyridine-5-carboxamide]	–	66%	84%	–
CCc1csc2c1c(O)c(C(=O)N(C)c1ccccc1)c(=O)n2C [compound 3, 6,7-dihydro-N,7-dimethyl-3-ethyl-4-hydroxy-N-phenyl-6-oxo-thieno[2,3-b]pyridine-5-carboxamide]	–	84%	100%	–
COc1ccc(N(C)C(=O)c2c(O)c3c(C)csc3n(C)c2=O)cc1 [compound 6, 6,7-dihydro-4-hydroxy-N-(4-methoxyphenyl)-N,3,7-trimethyl-6-oxo-thieno[2,3-b]pyridine-5-carboxamide]	–	92%	–	–
Cc1scc2c1c(O)c(C(=O)N(C)c1ccccc1)c(=O)n2C [compound 10, 4,5-dihydro-7-hydroxy-N-phenyl-N,1,4-trimethyl-5-oxo-2-thia-4-aza-indene-6-carboxamide]	–	–	78%	aEAE inhibition (%) [3]: 95%
CN(C(=O)c1c(O)c2ccsc2n(C)c1=O)c1ccccc1 [compound 11, 6,7-dihydro-N,7-dimethyl-4-hydroxy-N-phenyl-6-oxo-thieno[2,3-b]pyridine-5-carboxamide]	–	–	53%	–
CN(C(=O)c1c(O)c2sccc2n(C)c1=O)c1ccccc1 [compound 12, 4,5-dihydro-N,4-dimethyl-7-hydroxy-N-phenyl-5-oxo-thieno[3,2-b]pyridine-6-carboxamide, reference compound]	inactive	–	–	aEAE inhibition (%), result in words (SJL/N female mice, dose 5.0 mg/kg po, class word defined in footnote): inactive*
Cc1csc2c1c(O)c(C(=O)N(C)c1cccnc1)c(=O)n2C [compound 13, 6,7-dihydro-4-hydroxy-N-(3-pyridyl)-N,3,7-trimethyl-6-oxo-thieno[2,3-b]pyridine-5-carboxamide, reference compound]	poorly active	–	–	aEAE inhibition (%) [3]: 46%
